The results in this text go back to PubChem BioAssay AID1259407 (Chemical Carcinogenesis Research Information System (CCRIS), 2018).

Activity calls are given as the source filed them. The rule behind the calls is not given here.

In the data set the test system is CCRIS mutagenicity, Ames/micronucleus/aberration tests. As to the kind of experiment: CCRIS mutagenicity studies.
Where [1] appears, read: Test System: AMES SALMONELLA TYPHIMURIUM, Strain/Indicator: TA98, Metabolic Activation: NONE, Method: PREINCUBATION
Where [2] appears, read: Test System: AMES SALMONELLA TYPHIMURIUM, Strain/Indicator: TA98, Metabolic Activation: NONE, Method: STANDARD PLATE.
[3] abbreviates: Test System: AMES SALMONELLA TYPHIMURIUM, Strain/Indicator: TA100, Metabolic Activation: NONE, Method: PREINCUBATION
Setting [4] is: Test System: AMES SALMONELLA TYPHIMURIUM, Strain/Indicator: TA100, Metabolic Activation: NONE, Method: STANDARD PLATE.
Setting [5] is: Test System: AMES SALMONELLA TYPHIMURIUM, Strain/Indicator: TA100, Metabolic Activation: RAT, LIVER, S-9, AROCLOR 1254, Method: STANDARD PLATE.

As for `Cc1cc(-c2ccc(N=Nc3cc(S(=O)(=O)O)c4ccccc4c3N)c(C)c2)ccc1N=Nc1cc(S(=O)(=O)O)c2ccccc2c1N`, the mutagenic call (Test System: AMES SALMONELLA TYPHIMURIUM, Strain/Indicator: SV50, Metabolic Activation: HAMSTER, LIVER, S-9, Method: PREINCUBATION (PRIVAL METHOD)) is “active; positive”; the mutagenic call (Test System: AMES SALMONELLA TYPHIMURIUM, Strain/Indicator: SV50, Metabolic Activation: RAT, LIVER, S-9, AROCLOR 1254, Method: PREINCUBATION (PRIVAL METHOD)) is “active; positive”; the mutagenic call (Test System: AMES SALMONELLA TYPHIMURIUM, Strain/Indicator: TA98, Metabolic Activation: HAMSTER, LIVER, S-9, AROCLOR 1254 (10%), Method: PREINCUBATION) is “inactive; negative”; the mutagenic call (Test System: AMES SALMONELLA TYPHIMURIUM, Strain/Indicator: TA98, Metabolic Activation: HAMSTER, LIVER, S-9, AROCLOR 1254, Method: STANDARD PLATE) is “inactive; negative”; the mutagenic call (Test System: AMES SALMONELLA TYPHIMURIUM, Strain/Indicator: TA98, Metabolic Activation: HAMSTER, LIVER, S-9, Method: PREINCUBATION (PRIVAL METHOD)) was “active; positive”; the mutagenic call under setting [1] was “inactive; negative”. The mutagenic call under setting [2] is “inactive; negative”; the mutagenic call (Test System: AMES SALMONELLA TYPHIMURIUM, Strain/Indicator: TA98, Metabolic Activation: RAT, LIVER, S-9, AROCLOR 1254 (10%), Method: PREINCUBATION) was “inactive; negative”; the mutagenic call (Test System: AMES SALMONELLA TYPHIMURIUM, Strain/Indicator: TA98, Metabolic Activation: RAT, LIVER, S-9, AROCLOR 1254, Method: PREINCUBATION (PRIVAL METHOD)) is “active; positive”; the mutagenic call (Test System: AMES SALMONELLA TYPHIMURIUM, Strain/Indicator: TA98, Metabolic Activation: RAT, LIVER, S-9, AROCLOR 1254, Method: STANDARD PLATE) is “inactive; negative”; the mutagenic call (Test System: AMES SALMONELLA TYPHIMURIUM, Strain/Indicator: TA100, Metabolic Activation: HAMSTER, LIVER, S-9, AROCLOR 1254 (10%), Method: PREINCUBATION) is “inactive; negative”; the mutagenic call (Test System: AMES SALMONELLA TYPHIMURIUM, Strain/Indicator: TA100, Metabolic Activation: HAMSTER, LIVER, S-9, AROCLOR 1254, Method: STANDARD PLATE) was “inactive; negative”. Moreover, the mutagenic call by setting is: under setting [3], “inactive; negative”; under setting [4], “inactive; negative”; (Test System: AMES SALMONELLA TYPHIMURIUM, Strain/Indicator: TA100, Metabolic Activation: RAT, LIVER, S-9, AROCLOR 1254 (10%), Method: PREINCUBATION) “inactive; negative”; under setting [5], “inactive; negative”; (Test System: AMES SALMONELLA TYPHIMURIUM, Strain/Indicator: TA1535, Metabolic Activation: HAMSTER, LIVER, S-9, AROCLOR 1254 (10%), Method: PREINCUBATION) “inactive; negative”; (Test System: AMES SALMONELLA TYPHIMURIUM, Strain/Indicator: TA1535, Metabolic Activation: HAMSTER, LIVER, S-9, AROCLOR 1254, Method: STANDARD PLATE) “inactive; negative”. For the same compound, the mutagenic call is, setting by setting: (Test System: AMES SALMONELLA TYPHIMURIUM, Strain/Indicator: TA1535, Metabolic Activation: NONE, Method: PREINCUBATION) “inactive; negative”; (Test System: AMES SALMONELLA TYPHIMURIUM, Strain/Indicator: TA1535, Metabolic Activation: NONE, Method: STANDARD PLATE) “inactive; negative”; (Test System: AMES SALMONELLA TYPHIMURIUM, Strain/Indicator: TA1535, Metabolic Activation: RAT, LIVER, S-9, AROCLOR 1254 (10%), Method: PREINCUBATION) “inactive; negative”; (Test System: AMES SALMONELLA TYPHIMURIUM, Strain/Indicator: TA1535, Metabolic Activation: RAT, LIVER, S-9, AROCLOR 1254, Method: STANDARD PLATE) “inactive; negative”; (Test System: AMES SALMONELLA TYPHIMURIUM, Strain/Indicator: TA1537, Metabolic Activation: HAMSTER, LIVER, S-9, AROCLOR 1254 (10%), Method: PREINCUBATION) “inactive; negative”; (Test System: AMES SALMONELLA TYPHIMURIUM, Strain/Indicator: TA1537, Metabolic Activation: HAMSTER, LIVER, S-9, AROCLOR 1254, Method: STANDARD PLATE) “inactive; negative”. For the same compound, the mutagenic call is “inactive; negative” (Test System: AMES SALMONELLA TYPHIMURIUM, Strain/Indicator: TA1537, Metabolic Activation: NONE, Method: PREINCUBATION); “inactive; negative” (Test System: AMES SALMONELLA TYPHIMURIUM, Strain/Indicator: TA1537, Metabolic Activation: NONE, Method: STANDARD PLATE); “inactive; negative” (Test System: AMES SALMONELLA TYPHIMURIUM, Strain/Indicator: TA1537, Metabolic Activation: RAT, LIVER, S-9, AROCLOR 1254 (10%), Method: PREINCUBATION); “inactive; negative” (Test System: AMES SALMONELLA TYPHIMURIUM, Strain/Indicator: TA1537, Metabolic Activation: RAT, LIVER, S-9, AROCLOR 1254, Method: STANDARD PLATE); “inactive; negative” (Test System: AMES SALMONELLA TYPHIMURIUM, Strain/Indicator: TA1538, Metabolic Activation: HAMSTER, LIVER, S-9, AROCLOR 1254, Method: STANDARD PLATE); “inactive; negative” (Test System: AMES SALMONELLA TYPHIMURIUM, Strain/Indicator: TA1538, Metabolic Activation: HAMSTER, LIVER, S-9, Method: STANDARD PLATE). Besides, the mutagenic call by setting is: (Test System: AMES SALMONELLA TYPHIMURIUM, Strain/Indicator: TA1538, Metabolic Activation: NONE, Method: STANDARD PLATE) “inactive; negative”; (Test System: AMES SALMONELLA TYPHIMURIUM, Strain/Indicator: TA1538, Metabolic Activation: RAT, LIVER, S-9, AROCLOR 1254, Method: STANDARD PLATE) “inactive; negative”; (Test System: MOUSE LYMPHOMA, Strain/Indicator: L5178Y (TK+/TK-), Metabolic Activation: NONE, Method: SUSPENSION/PLATE) “inactive; negative. reevaluation of results: negative”; (Test System: MOUSE LYMPHOMA, Strain/Indicator: L5178Y (TK+/TK-), Metabolic Activation: RAT, LIVER, S-9, AROCLOR 1254, Method: SUSPENSION/PLATE) “inactive; negative. reevaluation of results: negative”.

`CC(C)=C/C(C)=N/Nc1nncc2ccccc12`: the mutagenic call runs as follows: under setting [4], “active; positive”; (Test System: AMES SALMONELLA TYPHIMURIUM, Strain/Indicator: TA100, Metabolic Activation: RAT, LIVER, S-9, PHENOBARBITAL, Method: STANDARD PLATE) “active; positive”; (Test System: UDS RAT HEPATOCYTES, Strain/Indicator: THY INCORP, Metabolic Activation: NONE, Method: AUTORADIOGRAPHY) “inactive; negative”.

As to `CCN(CC)CCCNC(=O)C(=O)N/N=C/c1ccc([N+](=O)[O-])o1`, the mutagenic call (Test System: E. COLI, Strain/Indicator: WP2 UVRA, Metabolic Activation: NONE, Method: STANDARD PLATE) was “active; positive”.

As to `BrCc1ccc2c(c1)-c1cccc3cccc-2c13`, the mutagenic call is “active; positive” under setting [2] and “active; positive” under setting [4].

Take `Nc1ccnc2ccccc12`: the mutagenic call is “inactive; negative” under setting [1]; “inactive; negative” (Test System: AMES SALMONELLA TYPHIMURIUM, Strain/Indicator: TA98, Metabolic Activation: RAT, LIVER, S-9, KANECHLOR 500 OR PHENOBARBITAL AND BETA-NAPHTHOFLAVONE, Method: PREINCUBATION); “inactive; negative” under setting [3]; “inactive; negative” (Test System: AMES SALMONELLA TYPHIMURIUM, Strain/Indicator: TA100, Metabolic Activation: RAT, LIVER, S-9, KANECHLOR 500 OR PHENOBARBITAL AND BETA-NAPHTHOFLAVONE, Method: PREINCUBATION).

Regarding `c1ccc2c(c1)Cc1ccc3ccc4ccccc4c3c1-2`, the mutagenic call under setting [5] was “inactive; negative”.

For `CNc1ccc2ncc(C)nc2c1N`, the mutagenic call is “inactive; negative” under setting [1]; “inactive; negative” (Test System: AMES SALMONELLA TYPHIMURIUM, Strain/Indicator: TA98, Metabolic Activation: RAT, LIVER, S-9, AROCLOR 1254, Method: PREINCUBATION); “inactive; negative” under setting [3]; “inactive; negative” (Test System: AMES SALMONELLA TYPHIMURIUM, Strain/Indicator: TA100, Metabolic Activation: RAT, LIVER, S-9, AROCLOR 1254, Method: PREINCUBATION).
